According to paper PMC9117149, “USP14-regulated allostery of the human proteasome by time-resolved cryo-EM” (Nature, 2022):
Numbered stars: 1 amine (or outer) side, 2 acyl side, 3 side chain; on linkers, the order of the positions; unused ones are H or OH. Peptide text beside a SMILES is read from it. * marks the point of attachment. AMC = Cc1cc(=O)oc2cc(N*)ccc12; Suc = O=C(CCC(=O)[*:2])[*:1]

Key:
[1] = tested on: T1, human 26S proteasome, AAA-ATPase motor (RPT1-RPT6); conditions: 0.5 mM ATP, 5 mM MgCl2, pH 7.5, 37 °C, with 300 nM Ubn-Sic1PY and RPN13; USP14-free
T1 construct: gene PSMC2
T1 sequence (P35998 2-433): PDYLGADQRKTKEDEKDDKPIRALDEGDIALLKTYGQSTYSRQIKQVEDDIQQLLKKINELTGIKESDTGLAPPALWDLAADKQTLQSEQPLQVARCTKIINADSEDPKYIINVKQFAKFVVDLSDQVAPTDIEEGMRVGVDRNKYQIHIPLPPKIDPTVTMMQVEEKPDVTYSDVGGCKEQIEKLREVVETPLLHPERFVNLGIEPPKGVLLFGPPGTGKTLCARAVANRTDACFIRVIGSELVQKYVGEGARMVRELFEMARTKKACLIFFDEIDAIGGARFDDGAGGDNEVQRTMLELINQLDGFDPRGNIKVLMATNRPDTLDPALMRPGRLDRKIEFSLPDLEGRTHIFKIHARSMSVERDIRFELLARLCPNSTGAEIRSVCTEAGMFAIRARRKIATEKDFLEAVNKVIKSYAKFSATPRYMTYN
T1 sequence (P62191 2-440, further chain): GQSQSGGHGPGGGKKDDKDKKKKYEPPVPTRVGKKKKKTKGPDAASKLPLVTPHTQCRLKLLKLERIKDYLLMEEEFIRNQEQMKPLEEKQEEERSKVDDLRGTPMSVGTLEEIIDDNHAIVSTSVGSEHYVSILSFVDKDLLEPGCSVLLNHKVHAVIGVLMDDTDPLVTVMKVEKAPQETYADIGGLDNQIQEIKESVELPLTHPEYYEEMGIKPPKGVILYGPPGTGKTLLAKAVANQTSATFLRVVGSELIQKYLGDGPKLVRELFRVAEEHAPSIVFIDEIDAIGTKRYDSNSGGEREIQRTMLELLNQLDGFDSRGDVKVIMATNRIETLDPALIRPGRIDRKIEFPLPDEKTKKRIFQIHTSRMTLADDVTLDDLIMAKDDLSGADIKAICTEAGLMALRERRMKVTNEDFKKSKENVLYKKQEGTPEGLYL
T1 sequence (P43686 whole entry, further chain): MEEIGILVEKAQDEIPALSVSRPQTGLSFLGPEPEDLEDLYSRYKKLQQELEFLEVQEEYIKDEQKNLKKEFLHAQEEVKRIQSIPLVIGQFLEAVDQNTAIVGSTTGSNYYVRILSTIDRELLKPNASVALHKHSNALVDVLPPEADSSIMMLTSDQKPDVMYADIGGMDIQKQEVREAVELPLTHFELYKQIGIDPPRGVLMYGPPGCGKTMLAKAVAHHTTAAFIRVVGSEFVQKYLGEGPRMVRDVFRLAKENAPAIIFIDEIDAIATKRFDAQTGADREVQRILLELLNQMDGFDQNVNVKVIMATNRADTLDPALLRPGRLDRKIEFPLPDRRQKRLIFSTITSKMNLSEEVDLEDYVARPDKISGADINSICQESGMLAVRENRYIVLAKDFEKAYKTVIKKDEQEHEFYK
T1 sequence (P62333 whole entry, further chain): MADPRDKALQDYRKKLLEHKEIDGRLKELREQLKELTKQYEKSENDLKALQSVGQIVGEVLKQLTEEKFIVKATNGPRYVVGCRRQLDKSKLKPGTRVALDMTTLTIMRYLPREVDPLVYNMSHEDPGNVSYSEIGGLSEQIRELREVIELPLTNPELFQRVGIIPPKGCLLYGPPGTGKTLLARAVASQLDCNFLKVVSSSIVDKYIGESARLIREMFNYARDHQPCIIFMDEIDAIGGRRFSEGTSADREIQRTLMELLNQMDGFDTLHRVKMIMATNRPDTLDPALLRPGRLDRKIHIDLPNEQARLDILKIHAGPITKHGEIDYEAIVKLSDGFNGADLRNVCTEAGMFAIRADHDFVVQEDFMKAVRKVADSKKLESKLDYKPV
T1 sequence (P17980 whole entry, further chain): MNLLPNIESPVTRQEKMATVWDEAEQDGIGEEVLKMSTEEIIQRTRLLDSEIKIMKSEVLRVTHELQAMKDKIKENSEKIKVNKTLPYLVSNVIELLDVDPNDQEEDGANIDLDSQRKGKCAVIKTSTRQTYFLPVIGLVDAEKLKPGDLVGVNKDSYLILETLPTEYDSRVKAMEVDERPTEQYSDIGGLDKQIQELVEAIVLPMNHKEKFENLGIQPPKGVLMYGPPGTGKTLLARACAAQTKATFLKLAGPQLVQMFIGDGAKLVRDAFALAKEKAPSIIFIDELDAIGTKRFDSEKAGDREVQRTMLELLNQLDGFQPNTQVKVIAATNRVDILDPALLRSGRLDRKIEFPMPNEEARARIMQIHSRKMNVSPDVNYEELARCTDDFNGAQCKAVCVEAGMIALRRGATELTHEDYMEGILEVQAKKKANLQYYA
T1 sequence (P62195 2-406, further chain): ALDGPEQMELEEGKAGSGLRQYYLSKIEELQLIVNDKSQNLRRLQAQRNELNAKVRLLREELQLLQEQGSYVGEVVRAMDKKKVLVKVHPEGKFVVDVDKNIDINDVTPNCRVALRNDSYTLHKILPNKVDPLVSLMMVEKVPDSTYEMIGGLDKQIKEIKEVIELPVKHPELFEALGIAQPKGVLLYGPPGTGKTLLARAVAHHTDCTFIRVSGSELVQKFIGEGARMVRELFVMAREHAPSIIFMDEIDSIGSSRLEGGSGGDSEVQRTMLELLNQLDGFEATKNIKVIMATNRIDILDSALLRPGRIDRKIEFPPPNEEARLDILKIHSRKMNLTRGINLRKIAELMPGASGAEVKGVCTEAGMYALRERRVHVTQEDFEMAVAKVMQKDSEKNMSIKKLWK

[2] = biological target: T2, human 26S proteasome (peptidase activity) (Homo sapiens, UniProt P28074); assay: AMC fluorescence; assay type: biochemical; conditions: 10 μM substrate, 0.1 mM ATP, 0.5 mM MgCl2, 100 mM KCl, pH 7.5, 37 °C; USP14-free (also with USP14 variants)
T2 construct: gene PSMB5; 20S core particle; with Proteasome subunit beta type-1; Proteasome subunit beta type-2; Proteasome subunit beta type-3; Proteasome subunit beta type-4; Proteasome subunit beta type-6; Proteasome subunit beta type-7
T2 sequence (P28074 60-263): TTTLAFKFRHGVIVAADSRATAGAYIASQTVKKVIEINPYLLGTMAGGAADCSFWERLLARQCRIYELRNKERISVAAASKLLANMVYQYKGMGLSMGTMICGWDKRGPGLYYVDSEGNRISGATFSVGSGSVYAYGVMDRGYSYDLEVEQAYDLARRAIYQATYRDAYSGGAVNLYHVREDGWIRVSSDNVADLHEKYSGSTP

SMILES | malachite green phosphate release [1] | AMC fluorescence [2]
Nc1ncnc2c1ncn2[C@@H]1O[C@H](COP(=O)(O)OP(=O)(O)OP(=O)(O)O)[C@@H](O)[C@H]1O [ATP] | ATPase activity was quantified using malachite green phosphate assay kits | –
Cc1cc(=O)oc2cc(NC(=O)[C@H](Cc3ccc(O)cc3)NC(=O)[C@@H](NC(=O)[C@H](CC(C)C)NC(=O)[C@H](CC(C)C)NC(=O)CCC(=O)O)C(C)C)ccc12 [Suc-LLVY-AMC] (Suc-LLVY-{AMC}) | – | Peptide hydrolysis by the human proteasomes was measured using fluorogenic substrate Suc-LLVY-AMC
